# Like-named read-outs stand apart in the source and are kept apart here.
# Assays:
# Test in all cases: In vitro MIC, 2010 surveillance isolates
# E. coli ESBL+ = type: cell-based, Escherichia coli; conditions: for Cumulative % Inhibition at MIC: N=795
# E. faecium VS = type: cell-based; conditions: for Cumulative % Inhibition at MIC: N=575
# Enterobacter spp = type: cell-based
# K. oxytoca = type: cell-based; conditions: for Cumulative % Inhibition at MIC: N=377
# Acinetobacter spp = type: cell-based; conditions: for range of MICs (N <10, shown instead of MIC90): N=9
# E. cloacae CeftazS = type: cell-based; conditions: for Cumulative % Inhibition at MIC: N=550
# A. baumanii = type: cell-based
# MR CoNS = type: cell-based, Coagulase-Negative Staphylococcus; conditions: for Cumulative % Inhibition at MIC: N=1349
# E. coli ESBL− = type: cell-based, Escherichia coli; conditions: for Cumulative % Inhibition at MIC: N=3376
compound,measurement,setting,value
"CN(C)c1cc(CNCC(C)(C)C)c(O)c2c1C[C@H]1C[C@H]3[C@H](N(C)C)C(O)=C(C(N)=O)C(=O)[C@@]3(O)C(O)=C1C2=O [Compound 1, 9-[(2,2-dimethyl-propylamino)-methyl]-minocycline]",MIC90,"E. coli ESBL+; Asia/Pac, N=219",2 µg/mL
same,MIC90,E. coli ESBL+; ESBL-producing E. coli,4 µg/mL
same,MIC90,"E. coli ESBL+; Escherichia coli, ESBL-producing E. coli, read-out: MIC90",< 4 µg/mL
same,MIC90,"E. coli ESBL+; Europe, N=274",4 µg/mL
same,MIC90,"E. coli ESBL+; L. Amer, N=168",4 µg/mL
same,Cumulative % Inhibition at MIC,E. coli ESBL+; MIC 1 μg/ml,63.0%
same,Cumulative % Inhibition at MIC,E. coli ESBL+; MIC 2 μg/ml,87.5%
same,Cumulative % Inhibition at MIC,E. coli ESBL+; MIC 4 μg/ml,97.7%
same,Cumulative % Inhibition at MIC,E. coli ESBL+; MIC 8 μg/ml,99.5%
same,Cumulative % Inhibition at MIC,E. coli ESBL+; MIC 16 μg/ml,99.9%
same,Cumulative % Inhibition at MIC,"E. coli ESBL+; MIC ≤0.5 μg/ml, listed as head image P00006",30.4%
same,Cumulative % Inhibition at MIC,E. coli ESBL+; MIC ≥32 μg/ml,100%
same,MIC90,"E. coli ESBL+; N America, N=134",4 µg/mL
same,MIC90,"E. faecium VS; Asia/Pac, N=106",0.25 µg/mL
same,MIC90,"E. faecium VS; Europe, N=303",0.12 µg/mL
same,MIC90,"E. faecium VS; L. Amer, N=51",0.12 µg/mL
same,Cumulative % Inhibition at MIC,E. faecium VS; MIC 1 μg/ml,100%
same,Cumulative % Inhibition at MIC,"E. faecium VS; MIC ≤0.5 μg/ml, listed as head image P00003",99.8%
same,MIC90,"E. faecium VS; N America, N=115",0.25 µg/mL
same,MIC90,"Enterobacter spp; Asia/Pac, N=52",16 µg/mL
same,MIC90,"Enterobacter spp; Europe, N=82",4 µg/mL
same,MIC90,"Enterobacter spp; L. Amer, N=42",4 µg/mL
same,MIC90,"Enterobacter spp; N America, N=101",4 µg/mL
same,MIC90,"K. oxytoca; Asia/Pac, N=17",2 µg/mL
same,MIC90,"K. oxytoca; Europe, N=158",2 µg/mL
same,MIC90,"K. oxytoca; L. Amer, N=25",4 µg/mL
same,Cumulative % Inhibition at MIC,K. oxytoca; MIC 1 μg/ml,57.6%
same,Cumulative % Inhibition at MIC,K. oxytoca; MIC 2 μg/ml,89.4%
same,Cumulative % Inhibition at MIC,K. oxytoca; MIC 4 μg/ml,95.2%
same,Cumulative % Inhibition at MIC,K. oxytoca; MIC 8 μg/ml,98.7%
same,Cumulative % Inhibition at MIC,K. oxytoca; MIC 16 μg/ml,99.7%
same,Cumulative % Inhibition at MIC,"K. oxytoca; MIC ≤0.5 μg/ml, listed as head image P00013",2.1%
same,Cumulative % Inhibition at MIC,K. oxytoca; MIC ≥32 μg/ml,100%
same,MIC90,"K. oxytoca; N America, N=177",4 µg/mL
same,"range of MICs (N <10, shown instead of MIC90)",Acinetobacter spp; Asia/Pac,0.06-2
same,MIC90,"Acinetobacter spp; Europe, N=43",4 µg/mL
same,"range of MICs (N <10, shown instead of MIC90)",Acinetobacter spp; L. Amer,0.03-4
same,MIC90,"Acinetobacter spp; N America, N=42",2 µg/mL
same,MIC90,"E. cloacae CeftazS; Asia/Pac, N=100",4 µg/mL
same,MIC90,"E. cloacae CeftazS; Europe, N=183",4 µg/mL
same,MIC90,"E. cloacae CeftazS; L. Amer, N=57",8 µg/mL
same,Cumulative % Inhibition at MIC,E. cloacae CeftazS; MIC 1 μg/ml,15.3%
same,Cumulative % Inhibition at MIC,E. cloacae CeftazS; MIC 2 μg/ml,70.5%
same,Cumulative % Inhibition at MIC,E. cloacae CeftazS; MIC 4 μg/ml,93.3%
same,Cumulative % Inhibition at MIC,E. cloacae CeftazS; MIC 8 μg/ml,95.6%
same,Cumulative % Inhibition at MIC,E. cloacae CeftazS; MIC 16 μg/ml,97.8%
same,Cumulative % Inhibition at MIC,"E. cloacae CeftazS; MIC ≤0.5 μg/ml, listed as head image P00014",0.5%
same,Cumulative % Inhibition at MIC,E. cloacae CeftazS; MIC ≥32 μg/ml,100%
same,MIC90,"E. cloacae CeftazS; N America, N=210",4 µg/mL
same,MIC90,"A. baumanii; Asia/Pac, N=275",4 µg/mL
same,MIC90,"A. baumanii; Europe, N=145",4 µg/mL
same,MIC90,"A. baumanii; L. Amer, N=275",4 µg/mL
same,MIC90,"A. baumanii; N America, N=154",8 µg/mL
same,MIC90,"MR CoNS; Asia/Pac, N=77",1 µg/mL
same,MIC90,"MR CoNS; Europe, N=510",1 µg/mL
same,MIC90,"MR CoNS; L. Amer, N=301",1 µg/mL
same,Cumulative % Inhibition at MIC,MR CoNS; MIC 1 μg/ml,99.1%
same,Cumulative % Inhibition at MIC,MR CoNS; MIC 2 μg/ml,100%
same,Cumulative % Inhibition at MIC,MR CoNS; MIC ≤0.5 μg/ml,85.9%
same,MIC90,"MR CoNS; N America, N=461",1 µg/mL
same,MIC90,"E. coli ESBL−; Asia/Pac, N=282",2 µg/mL
same,MIC90,"E. coli ESBL−; Escherichia coli, ESBL-negative E. coli, read-out: MIC90",2 µg/mL
same,MIC90,"E. coli ESBL−; Europe, N=1533",2 µg/mL
same,MIC90,"E. coli ESBL−; L. Amer, N=389",2 µg/mL
same,Cumulative % Inhibition at MIC,E. coli ESBL−; MIC 1 μg/ml,84.2%
same,Cumulative % Inhibition at MIC,E. coli ESBL−; MIC 2 μg/ml,95.9%
same,Cumulative % Inhibition at MIC,E. coli ESBL−; MIC 4 μg/ml,99.3%
same,Cumulative % Inhibition at MIC,E. coli ESBL−; MIC 8 μg/ml,99.9%
same,Cumulative % Inhibition at MIC,E. coli ESBL−; MIC 16 μg/ml,100%

# From patent publication US10238670B2, “9-aminomethyl minocycline compounds and methods of use thereof in urinary tract infection (UTI) treatment” (Paratek Pharmaceuticals, Inc., priority 2016, dated 2019)
